Experimental findings from PMC5791972 (PLoS ONE, 2018) are described below.

Where two headings read alike, the source gives them in different places.

Assay [1] has as its target T1, A1 (h) (Homo sapiens, UniProt P30542).
T1 sequence (P30542 1-326): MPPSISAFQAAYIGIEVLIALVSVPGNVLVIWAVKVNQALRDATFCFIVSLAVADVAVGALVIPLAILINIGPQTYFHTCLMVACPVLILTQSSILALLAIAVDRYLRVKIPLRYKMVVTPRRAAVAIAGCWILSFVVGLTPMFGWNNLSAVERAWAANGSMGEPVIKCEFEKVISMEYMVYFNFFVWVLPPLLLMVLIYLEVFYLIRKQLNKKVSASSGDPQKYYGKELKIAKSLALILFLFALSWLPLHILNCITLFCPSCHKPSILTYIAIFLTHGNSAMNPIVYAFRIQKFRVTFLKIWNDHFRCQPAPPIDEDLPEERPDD
In kind it is binding.

Assay [2] concerns the target κ (KOP) (Rattus norvegicus, UniProt P34975). In words: biochemical.
For assay [3], the target named is Ca2+ channel (N) (Rattus norvegicus, UniProt Q02294). In words: biochemical. Type of assay: binding.
Sequence of Ca2+ channel (N) (Q02294 whole entry): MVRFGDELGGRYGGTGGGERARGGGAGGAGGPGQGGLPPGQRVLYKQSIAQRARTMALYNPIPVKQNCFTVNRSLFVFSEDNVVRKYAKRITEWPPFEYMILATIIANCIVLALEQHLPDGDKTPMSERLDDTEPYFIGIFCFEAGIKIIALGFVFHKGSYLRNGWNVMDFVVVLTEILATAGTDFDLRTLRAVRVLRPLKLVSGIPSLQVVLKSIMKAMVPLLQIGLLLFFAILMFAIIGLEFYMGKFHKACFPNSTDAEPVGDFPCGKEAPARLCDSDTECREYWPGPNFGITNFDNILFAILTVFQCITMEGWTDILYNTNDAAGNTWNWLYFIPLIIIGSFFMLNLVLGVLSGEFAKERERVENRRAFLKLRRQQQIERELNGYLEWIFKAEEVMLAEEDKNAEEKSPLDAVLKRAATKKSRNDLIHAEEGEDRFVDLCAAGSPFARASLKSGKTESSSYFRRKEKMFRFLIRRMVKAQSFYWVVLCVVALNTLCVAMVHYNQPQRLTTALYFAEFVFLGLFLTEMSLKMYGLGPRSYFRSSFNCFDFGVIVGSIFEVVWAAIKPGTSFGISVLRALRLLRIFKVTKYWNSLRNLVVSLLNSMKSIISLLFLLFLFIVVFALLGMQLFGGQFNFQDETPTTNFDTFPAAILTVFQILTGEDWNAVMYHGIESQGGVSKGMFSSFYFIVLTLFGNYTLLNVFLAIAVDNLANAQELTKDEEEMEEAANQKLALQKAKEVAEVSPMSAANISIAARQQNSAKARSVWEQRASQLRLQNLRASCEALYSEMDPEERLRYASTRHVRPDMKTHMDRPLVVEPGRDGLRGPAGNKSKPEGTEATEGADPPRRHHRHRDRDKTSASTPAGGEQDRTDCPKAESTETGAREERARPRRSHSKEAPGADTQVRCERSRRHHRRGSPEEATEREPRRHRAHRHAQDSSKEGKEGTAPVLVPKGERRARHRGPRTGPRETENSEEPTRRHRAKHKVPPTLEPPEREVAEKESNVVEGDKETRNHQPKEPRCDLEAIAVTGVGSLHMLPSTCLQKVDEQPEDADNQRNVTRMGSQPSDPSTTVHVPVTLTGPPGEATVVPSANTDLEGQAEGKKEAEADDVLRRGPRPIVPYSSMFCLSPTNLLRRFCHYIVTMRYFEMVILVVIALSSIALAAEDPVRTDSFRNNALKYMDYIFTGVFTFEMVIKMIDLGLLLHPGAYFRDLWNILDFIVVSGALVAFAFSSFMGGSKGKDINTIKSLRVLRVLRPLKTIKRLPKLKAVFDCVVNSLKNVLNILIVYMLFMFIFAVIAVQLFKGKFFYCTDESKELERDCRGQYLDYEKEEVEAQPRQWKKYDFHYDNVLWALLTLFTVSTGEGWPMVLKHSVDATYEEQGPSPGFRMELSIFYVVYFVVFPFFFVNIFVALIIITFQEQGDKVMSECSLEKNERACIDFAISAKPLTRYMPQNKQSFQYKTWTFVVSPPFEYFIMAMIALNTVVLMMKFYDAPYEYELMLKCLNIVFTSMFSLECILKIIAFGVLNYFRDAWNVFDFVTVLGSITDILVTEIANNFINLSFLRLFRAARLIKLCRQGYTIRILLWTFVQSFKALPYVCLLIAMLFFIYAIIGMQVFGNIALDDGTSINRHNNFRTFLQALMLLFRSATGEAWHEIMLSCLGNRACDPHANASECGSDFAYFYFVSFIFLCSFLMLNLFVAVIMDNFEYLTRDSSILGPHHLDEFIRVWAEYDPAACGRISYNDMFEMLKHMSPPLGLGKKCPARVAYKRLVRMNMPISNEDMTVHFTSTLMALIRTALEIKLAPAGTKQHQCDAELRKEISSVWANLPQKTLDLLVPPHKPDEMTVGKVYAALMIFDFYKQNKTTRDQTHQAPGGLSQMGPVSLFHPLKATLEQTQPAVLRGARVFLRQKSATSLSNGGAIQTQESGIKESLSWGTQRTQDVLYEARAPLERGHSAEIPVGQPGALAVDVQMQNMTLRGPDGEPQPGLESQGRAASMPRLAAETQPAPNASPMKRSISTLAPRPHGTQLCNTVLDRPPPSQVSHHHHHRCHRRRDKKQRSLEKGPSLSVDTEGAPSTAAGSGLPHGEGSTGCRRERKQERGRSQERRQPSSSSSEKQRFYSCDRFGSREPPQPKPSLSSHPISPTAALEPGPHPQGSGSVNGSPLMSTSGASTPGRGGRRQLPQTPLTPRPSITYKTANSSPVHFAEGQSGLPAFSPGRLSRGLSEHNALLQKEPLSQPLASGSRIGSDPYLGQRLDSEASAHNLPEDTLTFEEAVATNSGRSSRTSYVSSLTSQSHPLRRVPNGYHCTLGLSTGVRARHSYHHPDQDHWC
Sequence of Ca2+ channel (N) (P54290 25-944 partner limits assumed): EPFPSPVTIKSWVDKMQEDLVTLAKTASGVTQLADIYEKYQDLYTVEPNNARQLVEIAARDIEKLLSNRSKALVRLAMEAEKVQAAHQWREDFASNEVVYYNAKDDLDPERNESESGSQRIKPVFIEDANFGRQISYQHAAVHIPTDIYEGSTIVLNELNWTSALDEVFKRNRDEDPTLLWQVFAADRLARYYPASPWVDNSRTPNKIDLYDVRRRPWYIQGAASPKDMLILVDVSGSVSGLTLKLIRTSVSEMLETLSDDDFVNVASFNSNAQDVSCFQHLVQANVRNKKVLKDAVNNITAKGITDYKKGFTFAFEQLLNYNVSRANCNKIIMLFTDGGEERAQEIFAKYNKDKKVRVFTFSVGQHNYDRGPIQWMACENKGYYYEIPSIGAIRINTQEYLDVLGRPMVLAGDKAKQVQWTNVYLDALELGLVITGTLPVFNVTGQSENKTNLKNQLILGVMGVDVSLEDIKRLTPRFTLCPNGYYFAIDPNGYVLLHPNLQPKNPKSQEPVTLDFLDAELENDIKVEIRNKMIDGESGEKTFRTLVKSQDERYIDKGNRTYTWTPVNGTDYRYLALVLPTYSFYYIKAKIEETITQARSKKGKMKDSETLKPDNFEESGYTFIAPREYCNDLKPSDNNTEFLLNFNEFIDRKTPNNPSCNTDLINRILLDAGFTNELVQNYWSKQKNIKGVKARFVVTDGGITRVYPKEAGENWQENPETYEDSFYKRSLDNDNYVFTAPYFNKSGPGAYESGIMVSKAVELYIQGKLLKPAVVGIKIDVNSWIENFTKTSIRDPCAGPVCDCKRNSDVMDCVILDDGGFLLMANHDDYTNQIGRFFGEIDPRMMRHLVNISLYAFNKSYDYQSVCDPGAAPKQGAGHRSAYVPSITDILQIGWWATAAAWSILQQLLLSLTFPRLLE
Sequence of Ca2+ channel (N) (P54290 945-1091 partner limits assumed): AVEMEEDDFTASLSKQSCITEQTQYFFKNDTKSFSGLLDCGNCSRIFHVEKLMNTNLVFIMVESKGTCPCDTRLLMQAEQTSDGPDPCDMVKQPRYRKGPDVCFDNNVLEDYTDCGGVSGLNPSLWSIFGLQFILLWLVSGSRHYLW
Sequence of Ca2+ channel (N) (P54287 whole entry partner): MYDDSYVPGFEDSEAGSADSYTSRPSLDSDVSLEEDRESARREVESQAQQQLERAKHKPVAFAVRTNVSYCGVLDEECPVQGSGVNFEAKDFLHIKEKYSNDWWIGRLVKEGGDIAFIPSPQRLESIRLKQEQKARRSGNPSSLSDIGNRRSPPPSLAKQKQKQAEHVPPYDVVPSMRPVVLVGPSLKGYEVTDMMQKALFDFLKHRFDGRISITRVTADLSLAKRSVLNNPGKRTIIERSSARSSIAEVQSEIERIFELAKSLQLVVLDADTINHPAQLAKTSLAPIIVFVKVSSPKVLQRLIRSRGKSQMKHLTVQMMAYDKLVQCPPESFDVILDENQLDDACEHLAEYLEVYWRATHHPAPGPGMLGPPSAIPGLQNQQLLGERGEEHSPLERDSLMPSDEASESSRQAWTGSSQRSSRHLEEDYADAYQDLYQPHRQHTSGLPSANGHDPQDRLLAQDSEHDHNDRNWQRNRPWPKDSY
In assay [4] the target is T2, PDE6 (non-selective) (Bos taurus, UniProt P11541+P23439).
T2 construct: PDE6 bovine [3H]cGMP; tissue Cerep (contract assay); host or cells: bovine retina
T2 sequence (P11541 2-856 limits assumed): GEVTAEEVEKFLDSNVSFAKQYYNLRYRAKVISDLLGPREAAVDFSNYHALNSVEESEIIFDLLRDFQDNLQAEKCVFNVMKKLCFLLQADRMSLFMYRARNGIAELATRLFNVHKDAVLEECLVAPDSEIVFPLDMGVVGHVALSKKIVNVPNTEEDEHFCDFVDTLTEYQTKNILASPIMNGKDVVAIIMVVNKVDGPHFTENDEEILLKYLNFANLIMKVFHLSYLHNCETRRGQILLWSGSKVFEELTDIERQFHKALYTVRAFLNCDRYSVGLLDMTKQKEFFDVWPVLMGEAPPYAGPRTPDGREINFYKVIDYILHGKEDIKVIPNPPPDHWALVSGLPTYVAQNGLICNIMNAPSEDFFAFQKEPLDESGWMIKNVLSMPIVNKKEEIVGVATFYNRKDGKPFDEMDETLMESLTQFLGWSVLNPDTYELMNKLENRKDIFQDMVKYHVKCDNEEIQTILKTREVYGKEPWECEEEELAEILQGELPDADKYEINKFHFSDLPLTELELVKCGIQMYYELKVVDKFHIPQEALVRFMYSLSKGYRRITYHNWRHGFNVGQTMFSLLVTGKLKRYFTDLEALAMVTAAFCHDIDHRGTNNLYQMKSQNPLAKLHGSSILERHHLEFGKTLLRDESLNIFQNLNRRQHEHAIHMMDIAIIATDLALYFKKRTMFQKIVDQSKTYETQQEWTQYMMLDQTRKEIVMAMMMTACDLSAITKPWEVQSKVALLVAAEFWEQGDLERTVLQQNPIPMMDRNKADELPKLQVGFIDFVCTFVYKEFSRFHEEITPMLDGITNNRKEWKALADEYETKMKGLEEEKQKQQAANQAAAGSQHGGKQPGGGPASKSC
T2 sequence (P23439 2-850 limits assumed): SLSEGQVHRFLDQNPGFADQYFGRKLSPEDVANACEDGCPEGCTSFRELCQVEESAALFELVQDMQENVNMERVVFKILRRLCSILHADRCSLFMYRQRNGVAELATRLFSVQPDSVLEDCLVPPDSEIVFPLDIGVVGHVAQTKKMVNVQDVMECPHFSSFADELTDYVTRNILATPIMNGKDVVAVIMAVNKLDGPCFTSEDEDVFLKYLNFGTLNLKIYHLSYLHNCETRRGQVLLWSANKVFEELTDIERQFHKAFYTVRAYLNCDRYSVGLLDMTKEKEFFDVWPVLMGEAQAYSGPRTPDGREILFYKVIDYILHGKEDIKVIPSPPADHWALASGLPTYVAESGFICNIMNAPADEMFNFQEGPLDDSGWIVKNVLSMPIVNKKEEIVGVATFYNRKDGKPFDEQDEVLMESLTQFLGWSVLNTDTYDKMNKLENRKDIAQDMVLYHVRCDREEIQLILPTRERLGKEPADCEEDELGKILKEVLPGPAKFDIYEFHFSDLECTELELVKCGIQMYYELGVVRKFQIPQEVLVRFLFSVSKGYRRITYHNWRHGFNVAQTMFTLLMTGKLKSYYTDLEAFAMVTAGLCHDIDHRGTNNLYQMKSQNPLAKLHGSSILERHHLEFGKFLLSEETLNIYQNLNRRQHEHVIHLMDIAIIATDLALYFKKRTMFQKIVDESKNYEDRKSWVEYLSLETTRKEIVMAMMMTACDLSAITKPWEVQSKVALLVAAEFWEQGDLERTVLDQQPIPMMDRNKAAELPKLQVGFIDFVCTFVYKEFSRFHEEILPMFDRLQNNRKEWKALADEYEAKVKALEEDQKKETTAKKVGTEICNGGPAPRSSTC
In words: enzyme assay. Type of assay: biochemical, bovine. Conditions: 1.0E-06 M.

Assay [5] deals with T3, NK2 (h) (Homo sapiens, UniProt P21452).
T3 construct: host or cells: CHO cells
T3 sequence (P21452 1-398): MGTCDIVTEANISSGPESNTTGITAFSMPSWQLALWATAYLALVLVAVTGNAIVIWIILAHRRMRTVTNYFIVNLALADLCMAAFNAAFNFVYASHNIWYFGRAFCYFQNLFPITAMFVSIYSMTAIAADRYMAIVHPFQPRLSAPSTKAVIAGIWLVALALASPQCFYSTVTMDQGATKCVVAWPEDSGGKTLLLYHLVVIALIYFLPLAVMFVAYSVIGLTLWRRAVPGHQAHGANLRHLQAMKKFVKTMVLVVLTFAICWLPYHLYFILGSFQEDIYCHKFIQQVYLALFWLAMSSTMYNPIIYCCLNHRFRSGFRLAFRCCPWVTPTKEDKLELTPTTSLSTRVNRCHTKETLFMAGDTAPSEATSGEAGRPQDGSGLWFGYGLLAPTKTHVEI
In kind it is binding. The conditions noted are these: 1.0E-06 M.

For assay [6], the target named is T4, 5-HT2A (h) (Homo sapiens, UniProt P28223).
T4 construct: host or cells: HEK-293 cells
T4 sequence (P28223 whole entry): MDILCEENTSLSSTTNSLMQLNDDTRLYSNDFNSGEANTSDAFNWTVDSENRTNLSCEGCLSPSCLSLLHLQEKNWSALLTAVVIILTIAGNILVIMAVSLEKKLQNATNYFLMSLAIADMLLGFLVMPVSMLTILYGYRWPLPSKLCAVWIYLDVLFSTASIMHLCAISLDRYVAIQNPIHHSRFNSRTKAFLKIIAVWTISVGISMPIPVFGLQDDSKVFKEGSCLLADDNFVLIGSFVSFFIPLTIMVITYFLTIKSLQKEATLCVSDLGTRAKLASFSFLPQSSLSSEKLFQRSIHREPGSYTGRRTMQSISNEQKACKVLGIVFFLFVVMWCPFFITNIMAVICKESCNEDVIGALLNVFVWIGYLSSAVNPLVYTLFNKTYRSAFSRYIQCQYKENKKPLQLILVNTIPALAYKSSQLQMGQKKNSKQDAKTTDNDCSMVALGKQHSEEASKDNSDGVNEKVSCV
Type of assay: binding.

Sequence of κ (KOP) (P34975 whole entry): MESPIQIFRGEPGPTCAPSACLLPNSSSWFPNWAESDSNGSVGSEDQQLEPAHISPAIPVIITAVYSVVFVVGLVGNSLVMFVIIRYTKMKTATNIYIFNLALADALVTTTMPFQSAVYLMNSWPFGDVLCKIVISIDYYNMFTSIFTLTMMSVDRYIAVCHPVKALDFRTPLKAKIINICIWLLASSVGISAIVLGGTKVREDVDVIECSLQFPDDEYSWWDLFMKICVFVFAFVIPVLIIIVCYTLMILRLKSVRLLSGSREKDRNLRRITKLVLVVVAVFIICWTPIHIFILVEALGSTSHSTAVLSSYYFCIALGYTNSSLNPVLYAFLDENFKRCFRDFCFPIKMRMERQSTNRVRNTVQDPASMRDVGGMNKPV

For `Cn1c(=O)n(CCCO)c(=O)c2c1nc(Oc1cccc(OC(F)(F)F)c1)n2Cc1ccc(Cl)cc1` [HC-608], the inhibition at 1 µM in assay [1] (1.0E-06 M, read-out: % Inhibition 1st) is 22.5%; in assay [1] (1.0E-06 M, read-out: % Inhibition Mean), 17.4%; in assay [1] (read-out: % Inhibition 2nd), 12.3%; in assay [2] (read-out: % Inhibition 1st), -8.1%; in assay [2] (read-out: % Inhibition 2nd), 1.1%; in assay [2] (read-out: % Inhibition Mean), -3.5%. The inhibition at 1 µM in assay [3] (read-out: % Inhibition 1st) is -5.9%; in assay [3] (read-out: % Inhibition 2nd), -13.1%; in assay [3] (read-out: % Inhibition Mean), -9.5%; in assay [4] (read-out: % Inhibition 1st) it was 25.3%; in assay [4] (read-out: % Inhibition 2nd) it was 8.8%; in assay [4] (read-out: % Inhibition Mean), 17%. Besides, the inhibition at 1 µM is -10% in assay [5] (read-out: % Inhibition 1st); 18.9% in assay [5] (read-out: % Inhibition 2nd); 4.4% in assay [5] (read-out: % Inhibition Mean); -4.3% in assay [6] (read-out: % Inhibition 1st); 6.9% in assay [6] (read-out: % Inhibition 2nd); 1.3% in assay [6] (read-out: % Inhibition Mean).
